In ChEMBL document CHEMBL1275572, “KPC-2-producing Enterobacter cloacae and pseudomonas putida coinfection in a liver transplant recipient” (2009) one finds MIC data, which are given here for 13 compounds.

≈ marks a conversion by molar mass, not a printed value.

Test [1] relates to Pseudomonas putida. The test can be described thus: Antimicrobial activity against Pseudomonas putida expressing beta-lactamase KPC-2 and SHV-12 obtained from criticall ill liver transplant recipient by broth microdilution method. Format: functional. (In general: Dilution methods test growth across graded concentrations, often in twofold steps.)
Test [2] has as its system Enterobacter cloacae. The test can be described thus: Antimicrobial activity against Enterobacter cloacae expressing beta-lactamase KPC-2 and SHV-12 obtained from criticall ill liver transplant recipient by broth microdilution method. Format: functional.
The test system of the next test is Acinetobacter sp. Put plainly: Antimicrobial activity against Acinetobacter spp. Format: functional, organism-based.
Test [3] concerns Enterobacter cloacae. The test can be described thus: Antimicrobial activity against Enterobacter cloacae expressing beta-lactamase KPC-2 and SHV-12 obtained from criticall ill liver transplant recipient by broth microdilution method in presence of beta-lactamase inhibitor Tazobactam. Format: functional.
Test [4] relates to Pseudomonas putida. Put plainly: Antimicrobial activity against Pseudomonas putida expressing beta-lactamase KPC-2 and SHV-12 obtained from criticall ill liver transplant recipient by broth microdilution method in presence of beta-lactamase inhibitor Tazobactam. Format: functional.

The term MIC denotes the smallest concentration in the dilution series that meets the test's criterion for growth inhibition.

Description for Pseudomonas aeruginosa: Antimicrobial activity against Pseudomonas aeruginosa

For the compound `C[C@H]1COc2c(N3CCN(C)CC3)c(F)cc3c(=O)c(C(=O)O)cn1c23.C[C@H]1COc2c(N3CCN(C)CC3)c(F)cc3c(=O)c(C(=O)O)cn1c23.O` [LEVOFLOXACIN], the results for the MIC in the test with Pseudomonas putida [1] and against Enterobacter cloacae [2] were over 16 µg/mL and 2 µg/mL, respectively.

Turning to `CC(C)(O/N=C(\C(=O)N[C@@H]1C(=O)N2C(C(=O)[O-])=C(C[n+]3ccccc3)CS[C@H]12)c1csc(N)n1)C(=O)O` [CEFTAZIDIME], the minimum inhibitory concentration (MIC) in the test on Pseudomonas putida [1] and in the test with Enterobacter cloacae [2] was over 32 µg/mL throughout.

Consider `CO[C@@]1(NC(=O)Cc2cccs2)C(=O)N2C(C(=O)O)=C(COC(N)=O)CS[C@@H]21` [CEFOXITIN], for which the MIC against Pseudomonas putida [1] and in the test with Enterobacter cloacae [2] was over 32 µg/mL each time.

`NCC[C@H](O)C(=O)N[C@@H]1C[C@H](N)[C@@H](O[C@H]2O[C@H](CN)[C@@H](O)[C@H](O)[C@H]2O)[C@H](O)[C@H]1O[C@H]1O[C@H](CO)[C@@H](O)[C@H](N)[C@H]1O` [AMIKACIN]: the minimum inhibitory concentration (MIC) was found to be 1 µg/mL (≈ 1.71 µM) with Pseudomonas putida [1] and 16 µg/mL (≈ 27.3 µM) against Enterobacter cloacae [2].

Consider COLISTIN, for which the MIC with Acinetobacter sp. was over 16 µg/mL; in the test on Pseudomonas putida [1], 2 µg/mL; in the test with Enterobacter cloacae [2], over 16 µg/mL; in the test on Pseudomonas aeruginosa, over 16 µg/mL.

Turning to `NC[C@H]1O[C@H](O[C@H]2[C@H](O)[C@@H](O[C@H]3O[C@H](CO)[C@@H](O)[C@H](N)[C@H]3O)[C@H](N)C[C@@H]2N)[C@H](N)C[C@@H]1O` [TOBRAMYCIN], the minimal inhibitory concentration (MIC) in the test with Pseudomonas putida [1] and in the test on Enterobacter cloacae [2] was over 8 µg/mL in each case.

For the compound `C[C@@H](O)[C@H]1C(=O)N2C(C(=O)O)=C(S[C@@H]3CN[C@H](C(=O)N(C)C)C3)[C@H](C)[C@H]12` [MEROPENEM], the MIC in the test with Pseudomonas putida [1] and against Enterobacter cloacae [2] was over 4 µg/mL throughout.

As for `CCN1CCN(C(=O)N[C@@H](C(=O)N[C@@H]2C(=O)N3[C@@H]2SC(C)(C)[C@@H]3C(=O)O)c2ccccc2)C(=O)C1=O` [PIPERACILLIN], the minimal inhibitory concentration (MIC) in the test with Enterobacter cloacae [3] and with Pseudomonas putida [4] was over 128 µg/mL each time.

With `CO/N=C(\C(=O)N[C@@H]1C(=O)N2C(C(=O)O)=C(CSc3nc(=O)c(O)nn3C)CS[C@H]12)c1csc(N)n1` [CEFTRIAXONE], the MIC in the test on Pseudomonas putida [1] and in the test with Enterobacter cloacae [2] was over 32 µg/mL in each case.

With GENTAMICIN, the MIC in the test on Pseudomonas putida [1] and in the test with Enterobacter cloacae [2] was over 8 µg/mL each time.

`C[C@@H](O)[C@H]1C(=O)N2C(C(=O)O)=C(SCCNC=N)C[C@H]12` [IMIPENEM ANHYDROUS]: the MIC against Pseudomonas putida [1] and against Enterobacter cloacae [2] was over 4 µg/mL in each case.

For `C[C@@H](O)[C@H]1C(=O)N2C(C(=O)O)=C(S[C@@H]3CN[C@H](C(=O)Nc4cccc(C(=O)O)c4)C3)[C@H](C)[C@H]12`, the MIC in the test on Pseudomonas putida [1] and in the test with Enterobacter cloacae [2] was over 8 µg/mL each time.

For the compound `CO/N=C(\C(=O)N[C@@H]1C(=O)N2C(C(=O)[O-])=C(C[N+]3(C)CCCC3)CS[C@H]12)c1csc(N)n1`, the MIC against Pseudomonas putida [1] was over 32 µg/mL.
